Values quoted from earlier work as cited in patent publication US9469654B2, “Bicyclic oxa-lactam kinase inhibitors” (PORTOLA PHARMACEUTICALS, INC., priority 2012, dated 2016).

Key:
[1] = tested on: lymphoma cell lines and primary human lymphoma samples
[2] = tested on: refractory NHL and chronic lymphocytic leukemia; settings: phase II clinical trial

activity against Src kinase (Src kinsase): not against
Compound: COc1cc(Nc2ncc(F)c(Nc3ccc4c(n3)NC(=O)C(C)(C)O4)n2)cc(OC)c1OC [Example R406]
activity against JAK kinases (JAK kinases): active against | apoptosis ([1]; lymphoma cell lines): resulting in apoptosis | effect on BCR signaling ([1]; lymphoma cell lines and primary human lymphoma samples): attenuates BCR signaling | clinical outcome [2]: favorable results
